Test results published in PMC7532004, “Site-specific effects of neurosteroids on GABAA receptor activation and desensitization” (eLife, 2020).
Where two headings read alike, the source gives them in different places.

Assays:
α1(V227W)β3 GABAAR = biological target: T1, α1(V227W)β3 GABAAR (UniProt P28472+P62813, V253W); test: [3H]muscimol binding to HEK cell membranes, α1 intrasubunit site mutant V227W; parameters: species or system rat α1, human β3
T1 construct: expressed in transfected cells; host or cells: HEK293S GnTI- (ATCC CRL-3022), transient
T1 sequence (P62813 28-455 V253W, one chain of several): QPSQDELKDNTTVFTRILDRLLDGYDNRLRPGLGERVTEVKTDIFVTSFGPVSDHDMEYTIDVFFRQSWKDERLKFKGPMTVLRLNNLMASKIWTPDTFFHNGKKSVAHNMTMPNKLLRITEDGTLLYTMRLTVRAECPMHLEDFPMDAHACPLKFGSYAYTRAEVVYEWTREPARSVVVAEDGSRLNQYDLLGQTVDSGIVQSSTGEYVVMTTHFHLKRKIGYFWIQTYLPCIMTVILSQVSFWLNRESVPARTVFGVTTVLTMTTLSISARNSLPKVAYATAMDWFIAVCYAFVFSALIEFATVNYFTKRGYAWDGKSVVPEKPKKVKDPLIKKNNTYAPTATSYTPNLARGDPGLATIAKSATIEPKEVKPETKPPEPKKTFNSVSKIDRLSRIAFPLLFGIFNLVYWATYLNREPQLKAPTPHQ
Protocol: (§1) The human α1 and β3 GABAAR subunits were subcloned into pcDNA3 for molecular manipulations and cRNA synthesis. Using QuikChange Site-Directed Mutagenesis Kit (Agilent Technologies, Santa Clara, CA), a FLAG tag was first added to the α1 subunit then an 8xHis tag was added to generate the following His-FLAG tag tandem ([…]), inserted between the fourth and fifth residues of the mature peptide. The α1 and β3 subunits were then transferred into the pcDNA4/TO and pcDNA5/TO vectors (Thermo Fisher Scientific), respectively, for tetracycline inducible expression. Transient expression was done using the GABAAR subunits rat α1FLAG ([Ueno et al., 1996]) and human β3 obtained from Geoffrey White (Neurogen, Branford, CT), each were subcloned into pcDNA3 for molecular manipulations and cRNA synthesis. Point mutations were generated using the QuikChange Site-Directed Mutagenesis Kit (Agilent) and the coding region was fully sequenced prior to use. The cDNAs were linearized with XbaI (NEB Labs, Ipswich, MA), and the cRNAs were generated using T7 mMessage mMachine (Ambion, Austin, TX).
(§2) [^3H]muscimol-binding assays were performed using a previously described method ([Chen et al., 2019]). […] Assay tubes were incubated for 1 hr on ice in the dark. […] Membranes were collected on Whatman/GF-C glass filter papers using a Brandel cell harvester (Gaithersburg, MD). To perform [^3H]muscimol binding isotherms, 100 μg/ml aliquots of membrane protein were incubated with 0.3 nM–1 μM [^3H]muscimol for 1 hr on ice in the dark. The specific activity for [^3H]muscimol concentrations from 30 nM to 1 μM was reduced to 2 Ci/mmol by dilution with nonradioactive muscimol. The membranes were collected on Whatman/GF-B glass filter papers using a vacuum manifold. […] For [^3H]muscimol-binding experiments examining competitive interactions between neurosteroids, the combined neurosteroids (0.3 μM 3α5αP or 3 μM KK148 ±30 μM KK150) or the same volume of dimethyl sulfoxide (DMSO) were added to the membranes which were then incubated with 3 nM [^3H]muscimol on ice for 1 hr. Time courses of neurosteroid [^3H]muscimol binding enhancement were examined by adding 10 µM of neurosteroids (3α5αP, 3β5αP) to membranes that had been fully equilibrated with 3 nM [^3H]muscimol for 1 hr on ice; binding was then measured as a function of time at 1, 3, 10, 30, 60 min. The membranes were collected on Whatman/GF-B glass filter papers using a vacuum manifold. Radioactivity bound to the filters was measured by liquid scintillation spectrometry using Bio-Safe II (Research Products International, Mount Prospect, IL).

α1β3 GABAAR WT = biological target: T2, α1β3 GABAAR WT (Homo sapiens, UniProt P14867+P28472); test: [3H]muscimol binding to HEK cell membranes (neurosteroid modulation and isotherms), WT receptor; conditions: for Emax (% of control) of [3H]muscimol binding: 100% means no effect; for Bmax of [3H]muscimol binding isotherm in the presence of the modulator: etomidate 100 μM, 3α5αP 30 μM, KK148 30 μM, control 9.8 ± 0.8
T2 construct: inserted between the fourth and fifth residues of the mature peptide; photolabeling full-length heteropentameric GABAARs in native membranes; expressed in transfected cells
T2 sequence (P14867 28-456): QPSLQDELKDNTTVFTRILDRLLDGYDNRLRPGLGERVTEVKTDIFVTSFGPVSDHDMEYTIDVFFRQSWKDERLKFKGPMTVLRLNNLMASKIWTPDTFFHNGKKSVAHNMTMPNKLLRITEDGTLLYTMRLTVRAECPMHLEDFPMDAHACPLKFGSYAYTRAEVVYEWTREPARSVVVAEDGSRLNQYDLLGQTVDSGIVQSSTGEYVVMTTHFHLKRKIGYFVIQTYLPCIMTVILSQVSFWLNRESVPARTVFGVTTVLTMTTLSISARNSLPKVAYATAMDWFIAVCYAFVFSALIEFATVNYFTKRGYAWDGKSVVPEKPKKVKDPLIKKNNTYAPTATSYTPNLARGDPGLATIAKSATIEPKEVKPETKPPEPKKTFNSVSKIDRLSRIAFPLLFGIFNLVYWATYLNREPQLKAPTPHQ
T2 sequence (P28472 26-473): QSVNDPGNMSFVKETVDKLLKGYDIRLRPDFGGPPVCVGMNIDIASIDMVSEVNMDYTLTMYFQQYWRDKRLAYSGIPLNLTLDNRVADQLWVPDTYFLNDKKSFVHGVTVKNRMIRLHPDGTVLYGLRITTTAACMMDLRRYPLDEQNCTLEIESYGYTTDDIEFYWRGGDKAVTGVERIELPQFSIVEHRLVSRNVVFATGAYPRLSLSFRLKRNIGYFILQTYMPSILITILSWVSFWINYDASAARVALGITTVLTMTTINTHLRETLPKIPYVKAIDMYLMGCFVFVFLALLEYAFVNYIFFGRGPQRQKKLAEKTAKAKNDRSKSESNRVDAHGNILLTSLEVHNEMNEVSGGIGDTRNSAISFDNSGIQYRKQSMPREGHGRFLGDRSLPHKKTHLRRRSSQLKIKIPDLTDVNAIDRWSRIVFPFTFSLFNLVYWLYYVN
Protocol: Stably transfected cells were plated into dishes. After reaching 50% confluence, GABAA receptors were expressed by inducing cells with 1 μg/ml of doxycycline with the addition of 5 mM sodium butyrate. Cells were harvested 48 to 72 hr after induction. HEK cells, after induction, were grown to 100% confluence, harvested and washed with 10 mM potassium phosphate, 100 mM potassium chloride (pH 7.5) plus protease inhibitors (Sigma-Aldrich, St. Louis, MO) two times. The cells were collected by centrifugation at 1,000 g at 4°C for 5 min. The cells were homogenized with a glass mortar and a Teflon pestle for ten strokes on ice. The pellet containing the membrane proteins was collected after centrifugation at 20,000 g at 4°C for 45 min and resuspended in a buffer containing 10 mM potassium phosphate, 100 mM potassium chloride (pH 7.5). The protein concentration was determined with micro-BCA protein assay and membranes were stored at −80°C.
as §2

α1(N408A/Y411F)β3 GABAAR = biological target: T3, α1(N408A/Y411F)β3 GABAAR (UniProt P28472+P62813, N434A/Y437F); test: [3H]muscimol binding to HEK cell membranes, α1 intrasubunit site mutant; parameters: species or system rat α1, human β3; conditions: for Emax (% of control) of [3H]muscimol binding: 100% means no effect; for Bmax of [3H]muscimol binding isotherm in the presence of the modulator: etomidate 100 μM, 3α5αP 30 μM, KK148 30 μM, control 0.90 ± 0.18
T3 construct: expressed in transfected cells; host or cells: HEK293S GnTI- (ATCC CRL-3022), transient
T3 sequence (P62813 28-455 N434A/Y437F, one chain of several): as the sequence (P62813 28-455 V253W, one chain of several) above, with W226V, N407A, Y410F counted along it
Protocol: as §1, §2

α1(V256S)β3 GABAAR = α1(V256S)β3 GABAAR (UniProt P28472+P62813, V283S); test: [3H]muscimol binding to HEK cell membranes, desensitization-eliminating mutant; parameters: expressed in transfected cells; host or cells: HEK293S GnTI- (ATCC CRL-3022), transient; species or system rat α1, human β3; conditions: 10 μM neurosteroid; 3 nM [3H]muscimol
α1(V256S)β3 GABAAR, sequence (P62813 28-455 V283S, one chain of several): as the sequence (P62813 28-455 V253W, one chain of several) above, with W226V, V256S counted along it
Protocol: as §1, with “Point mutations were generated using the QuikChange Site-Directed Mutagenesis Kit (Agilent) and the coding region was fully sequenced prior to use. The cDNAs were linearized with XbaI (NEB Labs, Ipswich, MA), and the cRNAs were generated using T7 mMessage mMachine (Ambion, Austin, TX).” left out
[^3H]muscimol-binding assays were performed using a previously described method ([Chen et al., 2019]). […] Time courses of neurosteroid [^3H]muscimol binding enhancement were examined by adding 10 µM of neurosteroids (3α5αP, 3β5αP) to membranes that had been fully equilibrated with 3 nM [^3H]muscimol for 1 hr on ice; binding was then measured as a function of time at 1, 3, 10, 30, 60 min. […] Radioactivity bound to the filters was measured by liquid scintillation spectrometry using Bio-Safe II (Research Products International, Mount Prospect, IL).

[1] = α1(N408A/Y411F)β3, 3 nM [3H]muscimol
[2] = WT α1β3, 3 nM [3H]muscimol, 1 hr on ice, read-out: EC50 for modulation of [3H]muscimol binding

| Structure (SMILES) | EC50 (α1β3 GABAAR WT) [nM] | Hill slope for modulation of [3H]muscimol binding (α1β3 GABAAR WT; WT α1β3, 3 nM [3H]muscimol) | Emax (% of control) of [3H]muscimol binding (α1β3 GABAAR WT; WT α1β3, 3 nM [3H]muscimol) | Bmax of [3H]muscimol binding isotherm in the presence of the modulator (α1β3 GABAAR WT; WT α1β3) [pmol/mg] | EC50 (α1(N408A/Y411F)β3 GABAAR) [nM] | Hill slope for modulation of [3H]muscimol binding (α1(N408A/Y411F)β3 GABAAR; [1]) | Emax (% of control) of [3H]muscimol binding (α1(N408A/Y411F)β3 GABAAR; [1]) | Bmax of [3H]muscimol binding isotherm in the presence of the modulator (α1(N408A/Y411F)β3 GABAAR; α1(N408A/Y411F)β3) [pmol/mg] | Enhancement of specific [3H]muscimol binding in α1(V256S)β3 compared with WT (α1(V256S)β3 GABAAR) | EC50 (α1β3 GABAAR WT; [2]) [nM] | also measured |
| --- | --- | --- | --- | --- | --- | --- | --- | --- | --- | --- | --- |
| NCc1cc(=O)[nH]o1 [muscimol] | – | – | – | – | – | – | – | – | – | – | Bmax of [3H]muscimol binding isotherm (α1(V227W)β3 GABAAR): 11.6 ± 0.4 (P > 0.99 vs. WT) pmol/mg; Kd (α1(V227W)β3 GABAAR; read-out: Kd of [3H]muscimol binding isotherm): 54.1 ± 5.8 nM; Bmax of [3H]muscimol binding isotherm (α1β3 GABAAR WT; WT α1β3): 12.1 ± 1.4 pmol/mg; Kd (α1β3 GABAAR WT; WT α1β3, 0.3 nM–1 μM [3H]muscimol, read-out: Kd of [3H]muscimol binding isotherm): 48.1 ± 4 nM; Bmax of [3H]muscimol binding isotherm (α1(N408A/Y411F)β3 GABAAR; α1(N408A/Y411F)β3): 0.9 ± 0.1 (*P < 0.01 vs. WT) pmol/mg; Kd (α1(N408A/Y411F)β3 GABAAR; α1(N408A/Y411F)β3, read-out: Kd of [3H]muscimol binding isotherm): 60.7 ± 7.5 nM |
| CC(=O)[C@H]1CC[C@H]2[C@@H]3CC[C@H]4C[C@H](O)CC[C@]4(C)[C@H]3CC[C@]12C [3α5αP, allopregnanolone] | 240 ± 40 | 1.10 ± 0.14 | 374.1 ± 11.1 % of control | 10.3 ± 0.7 | 2300 | 0.87 ± 0.44 | **146.0 ± 9.3 % of control | 0.93 ± 0.16 | unaffected | – | Decrease of enhancement of [3H]muscimol binding by mutation (α1(N408A/Y411F)β3 GABAAR; α1 intrasubunit site mutation vs WT): ~ 80% |
| CC(=O)[C@H]1CC[C@H]2[C@@H]3CC[C@H]4C[C@@H](O)CC[C@]4(C)[C@H]3CC[C@]12C [3β5αP, epi-allopregnanolone] | 260 ± 70 | 0.89 ± 0.26 | 195.6 ± 5.7 % of control | – | 610 ± 260 | 2.25 ± 0.92 | **124.3 ± 2.6 % of control | – | absent | – | Time constant (τ) of enhancement of [3H]muscimol binding (α1β3 GABAAR WT; 10 µM neurosteroid added to membranes equilibrated with 3 nM [3H]muscimol, 4°C): 3.97 ± 0.15 min |
| C#CCCO[C@H]1CC[C@H]2[C@@H]3CC[C@H]4CC5(CC[C@]4(C)[C@H]3CC[C@]12C)N=N5 [KK148] | – | 1.36 ± 0.16 | 431.0 ± 19.5 % of control | 10.8 ± 0.9 | – | 0.73 ± 0.23 | **161.7 ± 3.5 % of control | 0.85 ± 0.22 | – | 2400 ± 360 | Hill slope for modulation of [3H]muscimol binding (α1(V227W)β3 GABAAR; 3 nM [3H]muscimol): 0.76 ± 0.31; Emax (% of control) of [3H]muscimol binding (α1(V227W)β3 GABAAR; 3 nM [3H]muscimol, 100% means no effect): **209.2 ± 7.4 % of control; EC50 (α1(V227W)β3 GABAAR; 3 nM [3H]muscimol, read-out: EC50 for modulation of [3H]muscimol binding): 1730 ± 680 nM; EC50 (α1(N408A/Y411F)β3 GABAAR; α1(N408A/Y411F)β3, 3 nM [3H]muscimol, read-out: EC50 for modulation of [3H]muscimol binding): 1630 ± 530 nM |
| C#CCCO[C@@H]1CC[C@H]2[C@@H]3CC[C@H]4CC5(CC[C@]4(C)[C@H]3CC[C@]12C)N=N5 [KK150] | – | 1.12 ± 0.42 | 142.5 ± 3.9 % of control | – | – | – | – | – | – | 2760 ± 2320 | Effect on enhancement of [3H]muscimol binding by 3α5αP and KK148 (α1β3 GABAAR WT; 30 μM KK150 with 0.3 μM 3α5αP or 3 μM KK148, 3 nM [3H]muscimol): inhibited |
